Laboratory results taken from patent US6399580B1, “Methods and compositions for stimulating tissue growth and epithelial moisturization” (The Regents of the University of California, priority 1994, dated 2002).

What was measured:
[1] = tested on: cultured human keratinocytes; assay: [3H]-thymidine incorporation and DNA content in cultured human keratinocytes; format: cell-based; conditions: 24 hours, FIG. 12
Procedure: To determine the ability of exogenous glucosylceramides (GlcCER) to stimulate epidermal proliferation, we applied various concentrations of GlcCER to cultural human keratinocytes (third passage). Keratinocytes were isolated from human neonatal foreskins by a modification of the method of Pittelkow, M. R. and Scott, R. E. ( (1986) Proc. Mayo Clin. 61:771-777) Cells were added to 100 mm plastic Petri dishes at a density of 1 to 2×10^4 cells/cm^2, and grown initially in 10mls of Keratinocyte Growth Medium (KGM) (Clonetics, San Diego, Calif.) with 0.07 mM calcium. The cultures were maintained at 35° C. under 5% CO2 in air, with medium changes performed three times weekly. After the cells reached 70%-80% confluence, they were switched to KGM medium containing 1.2 mM calcium, and harvested at one week post-confluence. GlcCER was added for the last 24 hours of culture and ^3H-thymidine (1 μCi/ml) was added one-to-three hours prior to harvesting of cells for measurement of DNA synthesis and DNA content. (Proksch, E., et al., J. Clin. Invest. 87:1668-1673 (1991).
Using the method described in Example 5, incorporation of [^3H]-thymidine and total DNA content were measured in cultured human keratinocytes (CHK) grown in serum-free keratinocyte growth medium (KGM) supplemented with 0.07 mM .calcium. Cultured cell were further supplemented as indicated, with ceramide (Cer; 5 or 10 μM), glucosylceramide (GlcCER; 1.25 or 2.5 μM), or a combination of ceramide and glucosylceramide (10 and 1.25 μM, respectively).
CHK cells were grown in serum-free KGM supplemented both with 0.07 mM calcium and 10 μM ceramide (CER). Increasing concentrations of glucosylceramide were added (2.5 to 10 μM), and both [^3H]-thymidine (1 μCi/ml) and [^14C]-leucine (1 μCi/ml) incorporation assays were performed.
CHK cells were grown (as in Example 6)in serum-free KGM (0.07 mM calcium) and supplemented with increasing concentrations of ceramide (CER) alone (dark bars), glucosylceramide (GlcCer) alone (back row), or the combination of ceramide (10 μM) with increasing glucosylceramide (front row). […] Glucosylceramide alone again stimulated thymidine incorporation (>20%) at low concentrations (1.25 and 2.5 μM).
CHK cells were grown (as in Example 6) in serum-free KGM ([…]) supplemented with glucosylceramide (GlcCER) alone, or in combination with the β-glucocerebrosidase-inhibitor, CBE (3 or 10 μM) (FIG. 12). Incorporation of [^3H]-thymidine was measured at 24 hours following supplementation, and values are reported as percent of unsupplemented controls (mean ±S.D.; n>6). […] A low CBE concentration (3 μM) was ineffective.

[2] = tested on: murine epidermis; assay: Epidermal DNA synthesis, [3H]-thymidine incorporation in vivo; parameters: species or system mouse
Procedure: To assess the effects of a topical β-glucocerebrosidase inhibitor, conduritol-B-epoxide (CBE) in epidermal DNA synthesis two slightly different dosage protocols have been employed. In all cases, mice were treated topically with 20 μl to 40 μl of 250 nmol/μl CBE bid for 2-5 days on the right flank. On the last day, the mice were injected intraperitoneally with ^3H-thymidine (1 μCi/G body weight) diluted 1:10 in 100-200 μl isotonic NaCl. After one hour the mice were sacrificed. Whole skin was excised and subcutaneous fascia and fat were removed by scraped. Skin samples were placed dermis side downward onto 10 mM EDTA in phosphate buffered saline (PBS-CMF; pH 7.4) and incubated at 37° C. for 40 min. The skin was blotted dry with a tissue and epidermis removed by scraping with a surgical blade. The epidermis was minced into small pieces and placed in microcentrifuge vials. Samples were immediately snap frozen and stored in liquid nitrogen until immediately prior to preparation of the epidermal homogenates. 300 μl of 10 mM EDTA in PBS-CMF (pH 7.4) was added to all samples which then underwent tissue homogenization using Polytron (15 sec, ×2 on ice. Polytron tip was rinsed between each homogenization with 400 μl 10 mM EDTA in PBS-CMF. Rinses were combined with same original samples. Samples were sonicated twice for 10 sec on ice. 100 μl of 20% TCA was added and left for 10 min at 4° C. Samples were centrifuged at 2000×g at 4° C. for 5 min. The supernatant was discarded. 500 μl of 5% TCA was added and the samples were centrifuged at 2000×g at 4° C. for 5 min. The supernatant was discarded and this step was repeated again. The precipitate was resuspended in 1ml of 1N NaOH and vortexed. 400 μl or NaOH plus 400 μl of 1N HCl with 8ml Ecolume was used as a background blank. Vials were counted the following day.
We next determined whether the topical administration of structurally similar but less efficient β-glucosidase inhibitors would induce epidermal hyperproliferation. Animals were treated topically twice daily with either Conduritol-B-epoxide, Conduritol B (CB), or deoxynojirimycin (dNJM), each at 40 μl of 250 nmol/μl twice daily, as described in Example 10. After 24 hours, [^3H]-thymidine was injected intraperitoneally and incorporation of thymidine into DNA was determined (FIG. 26 A&B). […] This reduced activity is a result of the relative availability of these inhibitors to in vivo tissues.
Animals were treated as described in Example 10.
We next determined whether occlusion with a vapor-impermeable membrane would enhance the effects of a β-glucocerebrosidase inhibitor on epidermal DNA synthesis. […] After 24 hrs animals were injected with [^3H]-thymidine, and incorporation into DNA was determined (Proksch, et. al., J. Clin. Invest. 87:1668-1673, 1991).

O[C@H]1[C@H](O)[C@@H](O)[C@@H]2O[C@@H]2[C@@H]1O (racemic) [CBE, conduritol-B-epoxide]
inhibition of thymidine incorporation caused by higher glucosylceramide concentrations ([1]; CBE 3 μM with GlcCER): ineffective | inhibition of thymidine incorporation caused by higher glucosylceramide concentrations ([1]; CBE 10 μM with GlcCER): blocked the inhibition | DNA synthesis, CBE, GlcCER and occlusion ([2]; latex wrap, 24 hrs): increased DNA synthesis | epidermal DNA synthesis ([3H]-thymidine incorporation) ([2]; topical 40 μl of 250 nmol/μl twice daily, after 24 hours): potent stimulation | DNA synthesis rates, CBE+occlusion vs CBE alone ([2]; water-vapor impermeable latex wrap, 24 hrs, 4 separate studies): equivalent or higher
